Assay: I5NP siRNA concentration and non-compartmental pharmacokinetics in plasma after single oronasal inhalation (hybridisation assay)
Format: in vivo, cynomolgus monkeys
Details: for tmax: Treatment 1 (I5NP only), single oronasal inhalation; for AUC0-inf / AUC0-tlast / Cmax / Extrapolation (AUC0-inf − AUC0-tlast)/AUC0-inf × 100 / kel / t1/2 / tlast: Treatment 1, single oronasal inhalation
Description: Male cynomolgus monkeys were administered single oronasal inhalation doses of a nebulised aerosol formulation of fluorescent-labelled REDD14Cy3.5 and/or I5NP siRNAs. Following dosing, the concentration of I5NP in plasma, the non-compartmental disposition kinetics of I5NP in plasma, the qualitative distribution of REDD14Cy3.5 in lungs and the semi-quantitative distribution of I5NP in lungs were determined.
Three separate dose treatments were administered to the animals as detailed below. The theoretical inhalation achieved doses of siRNA were calculated from the respiratory minute volume (measured during pre-treatment), the aerosol concentration of the test article (measured gravimetrically during pre-treatment calibration of the nebuliser), the treatment time, the total aerosol depostion fraction (assumed as 100%) and the animal bodyweights on the day before each dose administration.
(§1) On Day 1 of the study, four of the available monkeys (101 to 104) were administered a target dose of 35 mg/kg of I5NP siRNA via an oronasal mask as a nebulized aerosol generated by the Aeroneb device. A 2.0 L/min dilution airflow was used. The total dose administered was calculated, based on the bodyweights and measured respiratory minute volumes of the animals, and on the achieved output of the Aeroneb device using the formulation concentration of 40 mg/mL. The administered dose was adjusted by changing the exposure times for the animals. Animals received treatment sequentially, rather than in parallel, using the single calibrated test Aeroneb.
as §1, with “35” for “1”, “Study,” for “study, four of”, “three remaining main study animals (103” for “available monkeys (101”, “105)” for “104)”, “animals.” for “animals. Animals received treatment sequentially, rather than in parallel, using the single calibrated test Aeroneb.”
A blood sample (0.5 mL) was collected at pre-dose, and at 15 minutes, 30 minutes, 1, 2, 4, 6, 8 and 24 hours post-end of inhalation, from the left or right femoral vein of each animal that received the full dose (101, 102, 103 and 106). Blood was collected into tubes with K3EDTA as the anticoagulant and then placed on wet ice pending centrifugation.
A blood sample (0.5 mL) was collected at pre-dose and at 15 minutes post-end of inhalation from all animals (103, 104 and 105). A third blood sample was collected at 6 h (animal 103), 24 h (animal 104) or 72 h (animal 105) post-end of inhalation. Blood was collected, into K3EDTA tubes, from the left or right femoral vein of each animal (103 to 105), and placed on wet ice pending centrifugation.
Blood was kept on wet ice until it was centrifuged, at 4° C. and 2700 rpm for approximately 10 minutes, to separate plasma (within 1 hour of collection). Plasma samples were separated, transferred to appropriately labeled vials and placed on dry ice prior to storage at approximately −80° C.
Following Treatments 1 and 3, plasma samples were analyzed for I5NP siRNA concentration at PCS-MTL according to a validated hybridization method.
Non-compartmental disposition kinetics in plasma was performed on concentration data from individual animals following Treatment 1. The following parameters were estimated as applicable:
All pharmacokinetic parameters were estimated using WinNonlin version 3.2 computer software.

[1] = Treatment 1, 8 hours post-end of dose
[2] = plasma, Treatment 1, mean of 4 animals

**Q.** What does the source list for “I5NP: exemplary p53 inhibiting siRNA; sense GAGAAUAUUUCACCCUUCA, antisense UGAAGGGUGAAAUAUUCUC (chemistry not given here)”?
**A.** highest mean concentration in plasma (Treatment 1, 15 minutes post-end of dosing, mean of 4 animals): 21.0 ± 5.01 ng/mL; mean plasma level [1]: 0.588 ± 0.561 ng/mL; plasma level as % of the Cmax value [1]: approximately 3%; plasma concentration (Treatment 1, 24 h post-end of dosing, animal 101): 0.205 ng/mL; plasma concentration (below limit of quantitation) (Treatment 1, after 8 h or 24 h post-end of dosing (at 24 h all animals other than 101)): < 0.10 ng/mL; absorption into the systemic circulation from the inhaled dose (Treatment 1, oronasal inhalation): rapid; mean plasma concentration (Treatment 3, 15 minutes post-end of dose): 40.3 ± 14.5 ng/mL; plasma level (Treatment 3, 6 h post-end of dose, animal 103): 11.1 ng/mL; plasma level (Treatment 3, 24 h post-end of dose, animal 104): 0.192 ng/mL; plasma concentration (less than limit of quantitation) (Treatment 3, 72 hours post-end of dosing, animal 105): < 0.10 ng/mL; tmax (plasma, animal 101): 0.5 h; tmax (plasma, animal 102): 0.5 h; tmax (plasma, animal 103): 0.42 h; tmax (plasma, animal 106): 0.42 h; AUC0-inf (plasma, animal 101): 72.0 ng·h/mL; AUC0-tlast (plasma, animal 101): 70.3 ng·h/mL; Cmax (plasma, animal 101): 26.3 ng/mL; Extrapolation (AUC0-inf − AUC0-tlast)/AUC0-inf × 100 (plasma, animal 101): 2.36%; kel (plasma, animal 101): 0.121 h⁻¹; t1/2 (plasma, animal 101): 5.74 h; tlast (plasma, animal 101): 24.25 h; AUC0-inf (plasma, animal 102): 27.3 ng·h/mL; AUC0-tlast (plasma, animal 102): 27.1 ng·h/mL; Cmax (plasma, animal 102): 18.0 ng/mL; Extrapolation (AUC0-inf − AUC0-tlast)/AUC0-inf × 100 (plasma, animal 102): 0.824%; kel (plasma, animal 102): 0.467 h⁻¹; t1/2 (plasma, animal 102): 1.48 h; tlast (plasma, animal 102): 8.25 h; AUC0-inf (plasma, animal 103): 46.8 ng·h/mL; AUC0-tlast (plasma, animal 103): 42.4 ng·h/mL; Cmax (plasma, animal 103): 24.0 ng/mL; Extrapolation (AUC0-inf − AUC0-tlast)/AUC0-inf × 100 (plasma, animal 103): 9.40%; kel (plasma, animal 103): 0.252 h⁻¹; t1/2 (plasma, animal 103): 2.75 h; tlast (plasma, animal 103): 8.17 h; AUC0-inf (plasma, animal 106): 16.1 ng·h/mL; AUC0-tlast (plasma, animal 106): 15.8 ng·h/mL; Cmax (plasma, animal 106): 15.6 ng/mL; Extrapolation (AUC0-inf − AUC0-tlast)/AUC0-inf × 100 (plasma, animal 106): 2.26%; kel (plasma, animal 106): 0.277 h⁻¹; t1/2 (plasma, animal 106): 2.50 h; tlast (plasma, animal 106): 8.17 h; mean AUC0-inf [2]: 40.6 ± 24.5 ng·h/mL; mean AUC0-tlast [2]: 38.9 ± 23.6 ng·h/mL; mean kel [2]: 0.279 ± 0.143 h⁻¹; mean t1/2 [2]: 3.12 ± 1.83 h

Reference: US20100215588A1, “THERAPEUTIC DELIVERY OF INHIBITORY NUCLEIC ACID MOLECULES TO THE RESPIRATORY SYSTEM” (priority 2007, published 2010)
